Where two headings read alike, the source gives them in different places.
Legend:
[1] = test system: Tadpole; assay: Tadpole loss of righting reflex (LRR) and loss of swimming reflex (LSR); assay type: in vivo; conditions: ± SEM
Protocol: Table 3 discloses the anesthetic effects of the compounds of the present disclosure. In particular, the anesthetic effect of the compounds of the present disclosure on Loss of Righting Reflex (LRR) and Loss of Swimming Reflex (LSR).
Methods used are known in the art (see Jiang, X., et al.). Error limits are calculated as standard error of the mean (N=10 or more animals at each of five or more different concentrations).

[2] = molecular target: T1, rat α1β2γ2L type GABAA receptors expressed in Xenopus laevis oocytes (Rattus norvegicus, UniProt P62813+P63138); assay: Oocyte electrophysiology: potentiation of GABA-mediated chloride currents and direct gating; assay type: cell-based; conditions: 2 μM GABA, ± SEM, N ≥4; for oocyte electrophysiology 0.1 μM: ratio of currents in presence/absence of 0.1 μM compound; for oocyte electrophysiology 1 μM: ratio of currents in presence/absence of 1 μM compound; for oocyte electrophysiology 10 μM: ratio of currents in presence/absence of 10 μM compound
T1 construct: expressed in transfected cells; host or cells: Xenopus laevis oocytes
T1 sequence (P62813 28-455): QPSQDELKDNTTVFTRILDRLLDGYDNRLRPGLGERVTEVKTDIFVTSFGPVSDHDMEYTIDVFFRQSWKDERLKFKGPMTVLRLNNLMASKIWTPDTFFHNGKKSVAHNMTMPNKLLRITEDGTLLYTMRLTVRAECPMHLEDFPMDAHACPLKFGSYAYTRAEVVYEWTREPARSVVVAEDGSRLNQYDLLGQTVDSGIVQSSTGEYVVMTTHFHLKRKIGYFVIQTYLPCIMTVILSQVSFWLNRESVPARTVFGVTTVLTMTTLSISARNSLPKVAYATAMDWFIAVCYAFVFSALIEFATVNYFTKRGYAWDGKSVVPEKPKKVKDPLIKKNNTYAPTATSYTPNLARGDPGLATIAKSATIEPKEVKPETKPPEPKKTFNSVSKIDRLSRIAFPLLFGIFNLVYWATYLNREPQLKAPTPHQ
T1 sequence (P63138 26-474): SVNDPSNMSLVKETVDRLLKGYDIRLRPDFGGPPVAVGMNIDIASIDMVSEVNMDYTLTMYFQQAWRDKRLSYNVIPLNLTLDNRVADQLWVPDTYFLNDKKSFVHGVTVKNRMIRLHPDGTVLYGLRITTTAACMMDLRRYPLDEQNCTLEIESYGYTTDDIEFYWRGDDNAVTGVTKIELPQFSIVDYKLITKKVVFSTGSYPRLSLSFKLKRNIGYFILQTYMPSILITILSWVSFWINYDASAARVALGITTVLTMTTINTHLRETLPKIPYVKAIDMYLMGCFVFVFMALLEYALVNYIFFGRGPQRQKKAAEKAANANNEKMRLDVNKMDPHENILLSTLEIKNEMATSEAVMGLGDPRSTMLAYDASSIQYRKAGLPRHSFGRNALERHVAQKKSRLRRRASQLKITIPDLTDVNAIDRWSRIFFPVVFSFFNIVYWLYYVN
T1 sequence (P18508 with tags, fused parts or gaps INS375LLRMFSFK partner): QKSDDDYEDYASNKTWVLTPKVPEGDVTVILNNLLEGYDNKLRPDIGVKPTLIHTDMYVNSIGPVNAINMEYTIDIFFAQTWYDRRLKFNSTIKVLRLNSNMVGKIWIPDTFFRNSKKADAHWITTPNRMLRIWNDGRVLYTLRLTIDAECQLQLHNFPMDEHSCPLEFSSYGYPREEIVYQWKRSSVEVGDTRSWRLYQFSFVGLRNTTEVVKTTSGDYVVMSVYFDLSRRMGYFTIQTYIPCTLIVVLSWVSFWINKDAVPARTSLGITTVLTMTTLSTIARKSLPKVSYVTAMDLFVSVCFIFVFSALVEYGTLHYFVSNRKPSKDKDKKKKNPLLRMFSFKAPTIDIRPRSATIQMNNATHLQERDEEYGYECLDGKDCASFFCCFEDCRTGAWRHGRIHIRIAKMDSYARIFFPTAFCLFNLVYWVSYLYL
Protocol: The compounds of the present disclosure were evaluated for the ability to potentiate chloride currents mediated by 2 μM GABA at rat α1β2γ2L type GABAA receptors expressed in Xenopus laevis oocytes and the results are shown in Table 2.

[3] = molecular target: T1, rat α1β2γ2L type GABAA receptors expressed in Xenopus laevis oocytes; assay: as above; assay type: cell-based; conditions: direct current gated by 10 μM compound in absence of GABA; ratio of compound only current/2 μM GABA current
[4] = molecular target: picrotoxin binding site on GABAA receptors; assay: [35S]-TBPS displacement (inhibition of [35S]-TBPS binding); conditions: non-competitive displacement; duplicate experiments in triplicate; ± SEM
Excerpt: The IC50 values for non-competitive displacers of [^35S]-TBPS from the picrotoxin binding site on GABAA receptors are reported in Table 1.

[5] = loss of righting reflex, read-out: Tadpole LRR EC50
[6] = loss of swimming reflex, read-out: Tadpole LSR EC50

Compound	EC50 [1, 5] [µM]	oocyte electrophysiology 0.1 μM [2]	oocyte electrophysiology 1 μM [2]	oocyte electrophysiology 10 μM [2]	EC50 [1, 6] [µM]	oocyte electrophysiology (gating) 10 μM [3]	melting point [°C]	IC50 [4] [µM]
COC[C@]12CCC(O)CC1CC[C@@H]1[C@@H]2CC[C@]2(C)C(=O)CC[C@@H]12 (stereo in doubt) [Compound 30, (3α,5β)-3-Hydroxy-19-methoxyandrostan-17-one]	> 10	0.90 ± 0.02	0.88 ± 0.01	0.84 ± 0.02				
COC[C@]12CCC(=O)C[C@@H]1CC[C@H]1[C@@H]3CC[C@H](OC)[C@@]3(C)CC[C@@H]12 [Compound 7, (5α,17β)-17,19-Dimethoxyandrostan-3-one]	1.71 ± 0.25	1.00 ± 0	0.85 ± 0.01	1.07 ± 0.02	5.48 ± 0.12	0.04 ± 0.03	91 to 93	
COC[C@]12CC[C@@H](O)C[C@@H]1CC[C@H]1[C@@H]3CC[C@H](OC)[C@@]3(C)CC[C@@H]12 [Compound 8, (5α,17β)-17,19-Dimethoxyandrostan-3-ol]	332 ± 43	1.65 ± 0.08	7.63 ± 0.77	20.9 ± 2.73	1.07 ± 0.01	0.22 ± 0.01		
COC[C@]12CC[C@@H](O)C[C@@H]1CC[C@@H]1[C@@H]2CC[C@]2(C)C(=O)CC[C@@H]12 [Compound 11, (3α,5α)-3-Hydroxy-19-methoxyandrostan-17-one]	7.95 ± 3.29	0.71 ± 0.02	0.76 ± 0.07	2.17 ± 0.12	17.3 ± 0.2	0 ± 0.07		4.3
COC[C@]12CC[C@@H](O)C[C@@H]1CC[C@@H]1[C@@H]2CC[C@@]2(C)[C@H]1CC[C@@]21CO1 [Compound 12, (3α,5α,17β)-19-Methoxyspiro[androstane-17,2′-oxiran]-3-ol]	1.73 ± 0.05	1.24 ± 0.05	7.40 ± 1.43	18.7 ± 6.19	3.54 ± 2.33	0.14 ± 0.04		
COC[C@]12CC[C@@H](O)C[C@@H]1CC[C@@H]1[C@@H]2CC[C@]2(C)C(C#N)=CC[C@@H]12 [Compound 15, (3α,5α)-3-Hydroxy-19-methoxyandrost-16-ene-17-carbonitrile]	1.22 ± 0.94	1.27 ± 0.13	5.34 ± 0.86	25.6 ± 3.23	2.71	0.10 ± 0.09		
COC[C@]12CC[C@@H](O)C[C@@H]1CC[C@H]1[C@@H]3CC[C@H](C#N)[C@@]3(C)CC[C@@H]12 [Compound 16, (3α,5α,17β)-3-Hydroxy-19-methoxyandrostane-17-carbonitrile]	0.36 ± 0.04	1.52 ± 0.02	9.79 ± 0.53	25.7 ± 2.11	0.99 ± 0.17	0.25 ± 0.11		
COC[C@]12CC[C@@H](O)C[C@@H]1CC[C@H]1[C@@H]3CC[C@H](C(C)=O)[C@@]3(C)CC[C@@H]12 [Compound 17, (3α,5α)-3-Hydroxy-19-methoxypregnan-20-one]	0.36 ± 0.04	2.15 ± 0.19	12.8 ± 1.74	33.8 ± 5.44	1.71 ± 0.03	0.23 ± 0.07		
COC[C@]12CC[C@@H](O)C[C@@H]1CC[C@H]1[C@@H]3CC[C@H](C(=O)CO)[C@@]3(C)CC[C@@H]12 [Compound 20, (3α,5α)-3,21-Dihydroxy-19-methoxypregnan-20-one]	3.15 ± 0.5	0.98 ± 0.01	2.76 ± 0.27	19.0 ± 2.31	5.48 ± 0.12	0.09 ± 0.05		
COC[C@]12CCC(=O)C=C1CC[C@@H]1[C@@H]2CC[C@]2(C)[C@@H](OC)CC[C@@H]12 [Compound 24, (17β)-17,19-Dimethoxyandrost-4-en-3-one]		0.88 ± 0.08	0.63 ± 0.06	1.06 ± 0.17		0.11 ± 0.17		
COC[C@]12CC[C@@H](O)CC1=CC[C@@H]1[C@@H]2CC[C@]2(C)[C@@H](OC)CC[C@@H]12 [Compound 25, (3α,17β)-17, 19-Dimethoxyandrost-5-en-3-ol]	3.38 ± 0.38	0.94 ± 0.07	1.97 ± 0.08	15.7 ± 0.90	10.5	0.08 ± 0.07		
COC[C@]12CC[C@H](O)CC1=CC[C@@H]1[C@@H]2CC[C@]2(C)[C@@H](OC)CC[C@@H]12 [Compound 26, (3β,17β)-17, 19-Dimethoxyandrost-5-en-3-ol]		0.83 ± 0.03	0.76 ± 0.02	0.78 ± 0.02		0.02 ± 0.02		
COC[C@]12CC[C@@H](O)C[C@@H]1CC[C@H]1[C@@H]3CC[C@H]([N+](=O)[O-])[C@@]3(C)CC[C@@H]12 [Compound 29, (3α,5α,17β)-19-methoxy-17-nitroandrostan-3-ol]	0.16 ± 0.01	2.07 ± 0.09	15.7 ± 1.45	26.6 ± 4.34	0.55 ± 0.01	0.11 ± 0.01		
COC[C@]12CC[C@H](O)C[C@@H]1CC[C@H]1[C@@H]3CC[C@H](OC)[C@@]3(C)CC[C@@H]12 [Compound 31, (3β,5α,17β)-17, 19-Dimethoxyandrostan-3-ol]	7.04 ± 1.98	0.91 ± 0.02	0.97 ± 0.05	1.10 ± 0.05	16.8 ± 5.9	0.02 ± 0		
